Columns and labels:
SARS-CoV-2 S-RBD/ACE2 = SARS-CoV-2 S-RBD/ACE2 (Severe acute respiratory syndrome coronavirus 2, UniProt P0DTC2); assay: NanoBiT RBD/ACE2 interaction assay in HEK293 cells; type: cell-based
[1] = molecular target: recombinant SARS-CoV-2 S-trimer protein; trimeric spike protein (Severe acute respiratory syndrome coronavirus 2, UniProt P0DTC2); assay: SPR (Biacore T200), spike trimer immobilised on CM5 chip; type: binding

CN(/N=C/c1ccccc1C(=O)O)c1nc(-c2ccccc2Cl)cs1 [S416]
IC50 (SARS-CoV-2 S-RBD/ACE2): 3.94 µM | Kd [1]: 6.88 µM

From paper PMC12279193 (Advanced Science, 2025)
